Results published in patent US7855076B2, “Use of discoidin domain receptor 1 (DDR1) and agents that affect the DDR1/collagen pathway” (The United States of America as represented by the …, priority 2002, dated 2010).

What was measured:
Assay type in all cases: cell-based, human
THP-1 cells [1] = test: Adherence of THP-1 cells to coated plates; conditions: DDR1a- or DDR1b-overexpressing THP-1 cells, 30 minutes
Procedure: 5×10^5 cells/ml were cultured on either BSA (10 mg/ml)- or collagen (20 μg/ml) and BSA-coated plates for 30 (FIG. 2A) or 120 minutes (FIG. 2B) at 37° C. in a 5% CO2 humidified incubator. Normal mouse IgG or anti-β1 integrin blocking IgG was added to measure the effect of β1 integrin in the assay. The number of adherent cells in each 400× visual field was counted. The results are presented as means ±SE of four individual fields. Data are representative of three experiments with two independent clones overexpressing either DDR1a or DDR1b.
To determine the effects of collagen on the functions of DDR1a- and DDR1b-overexpressing THP-1 cells, the cells were incubated on collagen-coated plastic plates. Twenty-four-well plates were coated with 100 μl/well human collagen type I (20 μg/ml) overnight at 4° C., and then with 200 μl/well 10 mg/ml bovine serum albumin (BSA) for 1 hour at 37° C. Cells were plated at the cell density of 1×10^5 cells/ml to the coated wells and were incubated for 30 minutes at 37° C. in 5% CO2 humidified atmosphere. Nonadherent cells were removed by washing three times with PBS. Cells that remained on the coated surface were considered to be adherent, and the number of cells in each 400 field was counted. Results were presented as mean ±SE per 400 field.

THP-1 cells [2] = test: Proliferation of PMA-treated THP-1 cells; conditions: DDR1b-overexpressing cells on collagen-coated plates, 10 nM PMA, 24 hour and 48 hour, compared with parental, mock or DDR1a cells
Procedure: One hundred μl of cell suspension (5×10^6/ml) were plated in 96-well tissue culture plates either uncoated or collagen-coated, and incubated at 37° C. in the presence of 10 nM phorbol 12-myristate 13 acetate (PMA) for 24 or 48 hours (FIG. 4A). Data are shown as the mean ±SD of 10 wells. *p<0.01 by Bonferroni/Dun with One Way Factorial ANOVA. Twenty μl of each cell lysate were loaded and Western blotting was performed. The expression levels of DDR1 in DDR1a- or DDR1b-overexpressing THP-1 cells before and after treatment with PMA plus collagen are shown in FIG. 4C. […]
One hundred μl of cell suspension (5×10^6/ml) were plated in 96-well tissue culture plates either collagen-coated or non-coated, and incubated at 37° C. in 5% CO2 humidified atmosphere in the presence of 10 nM PMA for 48 hours. Cell proliferation was measured by using the CellTiter 96 Aqueous Non-Radioactive Cell Proliferation Assay Kit (Promega, Madison, Wis.) according to the manufacture's protocol. Trypan-blue staining was also used to measure the number of live cells in each culture.

PMN = test: MCP-1 release by PMN (neutrophils), ELISA
Procedure: Human PMN and peripheral blood mononuclear cells (PBMC) were obtained from heparinized blood from human donors (10 units of heparin per ml of blood). One volume of 5% dextran (T-500 Pharmacia, Piscataway, N.J.) in phosphate buffered saline (PBS) was added to three volumes of blood in 50 ml polypropylene tubes. After a 40 minute incubation at room temperature, the leukocyte-rich plasma layer was removed and overlaid onto Lymphoprep in 50 ml tubes and the tubes were centrifuged at 800×g for 20 minutes at room temperature. PMN were separated from erythrocytes by lysis in 0.2% NaCl, washed in complete medium three times at 4° C. and resuspended in complete medium. PBMC contained in the PMN preparations obtained by this method were less than 0.5% by morphologic examination. Cell viability was higher than 98% by trypan blue staining.
A panel of cytokines was previously tested for their ability to induce MCP-1 production in PMN and it was reported that TNF-α and IFN-γ could cooperate to induce a high level of MCP-1 production (Yamashiro et al., J. Leukoc. Biol. 69:698, 2001). […] The majority of MCP-1 was released between 24 hours and 48 hours, showing a delayed kinetics of MCP-1 release. […] The effect of IFN-γ was dose-dependent.
To confirm that activation of DDR1 was responsible for the increased release of MCP-1 by PMN treated with IFN-γ and collagen, 513 anti-DDR1 Ab was used instead of collagen. The concentrations of MCP-1 were measured in the Lymphokine Testing Laboratory, Clinical Services Program, SAIC-Frederick (Frederick, Md.) with an ELISA kit (R&D Systems) specific for human MCP-1.

collagen
cells adhered to collagen-coated plates (THP-1 cells [1]): ~62 % of total cells | decrease of proliferation (THP-1 cells [2]): about 50% | effect on MCP-1 production (PMN; GM-CSF-treated PMN): no significant effect | effect on MCP-1 production (PMN; PMN treated with TNF-α plus IFN-γ or INF-α plus IFN-γ plus GM-CSF): negative effect | effect on MCP-1 production (PMN; PMN, no cytokine or TNF-α added): no significant effect
